From patent US5849701A, “Peptide inhibitors of fibronectin and related collagen-binding proteins” (The United States of America as represented by the …, priority 1995, dated 1998) come the findings set out here.

Assay [1] concerns the target T1, fibronectin (Homo sapiens, UniProt P02751). Briefly: Inhibition of fibronectin binding to immobilized native type I collagen. As to the method:
(§1) Wells of a microtiter plate were incubated for 3 hours at 25° C. with […] gelatin in Dulbecco's PBS. The wells were emptied and incubated with Dulbecco's PBS containing 1% BSA for 30 minutes. The wells were emptied and incubated with 0.5 μg/ml ^125 I-fibronectin in the presence of peptide GlyGlyTrpSerHisTrp (SEQ ID NO: 1) (.circle-solid.); GlyGlyTrpSerLysTrp (SEQ ID NO: 9) (.tangle-solidup.); GlyGlyTyrSerHisTrp (SEQ ID NO: 10) (.box-solid.); or GlyGlyTrpSerHisTyr (SEQ ID NO: 11) (.tangle-soliddn.) for 2 hours at 25° C. The wells were washed 4 times with PBS, cut from the plate and the bound radioactivity was counted.
A ligand binding assay as described in Example 5 was performed except that microtiter plates were coated with immobilized native type I collagen in place of gelatin.

Assay [2] has as its target T1, fibronectin. Briefly: Direct binding of 125I-fibronectin to immobilized peptides. The protocol: Fibronectin was isolated from platelet-depleted plasma as described (Ariyama, et al. 1985, J. Biol. Chem. 260:4492-4500) and iodinated using Iodogen (Pierce Chemical Co., Rockford, Ill.) as described (Roberts, et al. 1987, J. Cell. Biol. 104:131-139).
Direct binding of the fibronectin to immobilized peptides was carried out by first absorbing the peptides on polyvinyl chloride microtiter wells for 3 hours at 25° C. at the indicated concentrations. Unbound peptides were removed by washing and wells were incubated for 30 minutes in tris-BSA (50 mM tris-HCl, pH7-8, 110 mm NaCl, 1% BSA) (Sigma fatty acid and globulin-free, 0.1% NaN3). The wells were washed and incubated with […] of 0.5 μg/ml ^125 I-fibronectin for 2 hours at 25° C. The wells were washed five times with Dulbecco's phosphate buffered saline and cut from the plate and bound radioactivity was counted.
The peptides listed in Table 1 were synthesized as described above and absorbed to microtiter wells. […] This peptide sequence is located in the second type I repeat of the human-ThbsI gene.

Assay [3] has as its target T1, fibronectin. The assay can be described thus: Inhibition of 125I-fibronectin binding to immobilized peptide GlyGlyTrpSerHisTrp. As to conditions: wells coated with 50 μg/ml peptide; 0.5 μg/ml 125I-fibronectin. The protocol: Microtiter plate wells were coated with 50 μg/ml of peptide GlyGlyTrpSerHisTrp (SEQ ID NO: 1) as in Example 1. Binding of ^125 I-fibronectin (0.5 μg/ml) to bound peptide was determined in the presence of increasing amounts of the peptides: FIG. 2A: the peptides are GlyGlyTrpSerHisTrp (SEQ ID NO: 1) (.circle-solid.); GlyGlyTrpSerLysTrp (SEQ ID NO: 9) (.tangle-solidup.); GlyGlyTyrSerHisTrp (SEQ ID NO: 10) (.box-solid.) and GlyGlyTrpSerHisTyr (SEQ ID NO: 11) (.tangle-soliddn.); FIG. 2B: GlyGlyTrpSerHisTrp (SEQ ID NO: 1) (-); GlyGlyTrpThrHisTrp (SEQ ID NO: 12) (.tangle-solidup.); GlyGlyTrpAlaHisTrp (SEQ ID NO: 13) (.box-solid.); GlyTrpSerHisTrp (SEQ ID NO: 14) (+); AlaAlaTrpSerHisTrp (SEQ ID NO: 21) (.tangle-soliddn.); and AspGlyTrpSerHisTrp (SEQ ID NO: 22) (.quadrature.).
Binding of ^125 1-fibronectin (0.5 μg/ml) to microtiter plate wells coated with 50 μg/ml of peptide GlyGlyTrpSerHisTrp (SEQ ID NO: 1) was determined in the presence of synthetic peptide GlyGlyTrpSerHisTrp (SEQ ID NO: 1), fibronectin or thrombospondin.
Microtiter plates were coated with 50 μg/ml of synthetic peptide GlyGlyTrpSerHisTrp (SEQ ID NO: 1) as described in Example 1. Binding of 125I-fibronectin (0.5 μg/ml) to the bound peptide was determined in the presence of proteolytic fragments of fibronectin, which were obtained from Telios Pharmaceuticals, Inc. San Diego, Calif. The proteolytic fragments included intact fibronectin; 30 kDa gelatin-binding domain; 33 kDa recombinant cell binding domain; 28 kDa recombinant cell binding domain and transferrin.

The target in assay [4] is T1, fibronectin. The assay can be described thus: Inhibition of 125I-fibronectin binding to gelatin. Conditions: 0.5 μg/ml 125I-fibronectin, 2 hours at 25° C. The protocol:
as §1

Where no end group is shown, it is not given here. Where only a bound is given, the exact number is not on record here.

T1 sequence (P02751 32-2477): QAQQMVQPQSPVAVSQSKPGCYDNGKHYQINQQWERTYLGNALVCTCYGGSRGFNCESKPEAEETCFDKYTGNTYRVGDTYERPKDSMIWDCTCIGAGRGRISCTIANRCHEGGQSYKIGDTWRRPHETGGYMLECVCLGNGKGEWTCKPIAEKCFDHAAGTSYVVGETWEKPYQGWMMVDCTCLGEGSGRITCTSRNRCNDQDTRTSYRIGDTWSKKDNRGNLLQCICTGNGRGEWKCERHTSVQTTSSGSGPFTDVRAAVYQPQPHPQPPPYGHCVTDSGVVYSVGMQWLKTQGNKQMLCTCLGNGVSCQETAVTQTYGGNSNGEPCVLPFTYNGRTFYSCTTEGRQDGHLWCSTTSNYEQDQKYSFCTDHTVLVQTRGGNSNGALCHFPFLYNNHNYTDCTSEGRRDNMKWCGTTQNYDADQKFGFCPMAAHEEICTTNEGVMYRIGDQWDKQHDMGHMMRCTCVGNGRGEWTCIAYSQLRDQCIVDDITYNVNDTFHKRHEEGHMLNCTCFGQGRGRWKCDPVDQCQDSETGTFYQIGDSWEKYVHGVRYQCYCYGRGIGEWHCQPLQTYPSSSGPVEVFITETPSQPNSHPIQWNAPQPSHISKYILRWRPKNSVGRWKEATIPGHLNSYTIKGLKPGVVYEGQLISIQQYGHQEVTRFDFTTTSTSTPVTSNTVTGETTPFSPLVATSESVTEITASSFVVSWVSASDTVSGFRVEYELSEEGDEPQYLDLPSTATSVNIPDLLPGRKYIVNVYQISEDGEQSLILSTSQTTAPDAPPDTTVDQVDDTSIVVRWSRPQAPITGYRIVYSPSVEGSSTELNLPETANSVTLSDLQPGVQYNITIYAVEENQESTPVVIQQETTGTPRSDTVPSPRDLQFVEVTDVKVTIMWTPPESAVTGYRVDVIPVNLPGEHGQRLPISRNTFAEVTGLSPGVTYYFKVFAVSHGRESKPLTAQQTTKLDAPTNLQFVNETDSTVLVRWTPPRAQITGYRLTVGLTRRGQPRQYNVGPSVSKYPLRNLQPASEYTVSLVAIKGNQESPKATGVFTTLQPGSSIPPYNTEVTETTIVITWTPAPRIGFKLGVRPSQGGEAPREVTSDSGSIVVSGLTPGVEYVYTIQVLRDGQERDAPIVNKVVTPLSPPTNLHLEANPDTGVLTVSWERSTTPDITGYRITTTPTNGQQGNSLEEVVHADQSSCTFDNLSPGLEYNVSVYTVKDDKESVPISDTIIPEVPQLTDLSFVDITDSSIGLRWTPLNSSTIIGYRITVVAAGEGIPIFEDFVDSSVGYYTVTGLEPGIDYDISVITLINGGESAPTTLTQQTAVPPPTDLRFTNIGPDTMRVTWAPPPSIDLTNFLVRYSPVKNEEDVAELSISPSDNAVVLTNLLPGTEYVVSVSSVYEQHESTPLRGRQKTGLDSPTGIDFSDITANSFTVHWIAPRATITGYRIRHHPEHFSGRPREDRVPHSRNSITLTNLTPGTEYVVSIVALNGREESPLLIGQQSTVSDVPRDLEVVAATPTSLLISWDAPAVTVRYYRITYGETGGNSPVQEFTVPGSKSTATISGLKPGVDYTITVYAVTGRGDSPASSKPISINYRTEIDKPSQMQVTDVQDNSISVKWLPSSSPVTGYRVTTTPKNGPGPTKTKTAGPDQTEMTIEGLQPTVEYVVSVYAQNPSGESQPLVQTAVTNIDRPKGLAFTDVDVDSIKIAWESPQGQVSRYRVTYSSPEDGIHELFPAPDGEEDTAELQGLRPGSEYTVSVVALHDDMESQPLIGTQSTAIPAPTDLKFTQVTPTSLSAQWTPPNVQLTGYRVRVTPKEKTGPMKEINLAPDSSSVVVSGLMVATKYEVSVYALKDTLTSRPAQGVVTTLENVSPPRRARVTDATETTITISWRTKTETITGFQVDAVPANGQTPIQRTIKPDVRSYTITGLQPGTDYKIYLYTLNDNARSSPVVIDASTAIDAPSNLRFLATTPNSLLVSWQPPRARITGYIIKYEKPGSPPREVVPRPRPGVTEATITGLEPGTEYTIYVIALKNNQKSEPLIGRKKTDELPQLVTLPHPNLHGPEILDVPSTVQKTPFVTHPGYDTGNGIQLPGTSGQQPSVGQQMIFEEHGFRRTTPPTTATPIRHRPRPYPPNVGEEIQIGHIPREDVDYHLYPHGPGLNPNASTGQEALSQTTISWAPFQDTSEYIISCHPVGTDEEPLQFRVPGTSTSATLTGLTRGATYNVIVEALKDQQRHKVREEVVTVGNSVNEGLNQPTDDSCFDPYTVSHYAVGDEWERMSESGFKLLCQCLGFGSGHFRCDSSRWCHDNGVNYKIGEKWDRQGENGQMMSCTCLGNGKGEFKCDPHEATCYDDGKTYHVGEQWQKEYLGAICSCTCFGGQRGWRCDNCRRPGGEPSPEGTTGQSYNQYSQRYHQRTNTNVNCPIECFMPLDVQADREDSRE

For the molecule AAWSHW [AlaAlaTrpSerHisTrp], the “inhibition of fibronectin binding to type I collagen (in words)” value (“inhibition … to type I collagen (in words)” for short) in assay [1] is “inactive”.

On to DGWSHW [AspGlyTrpSerHisTrp], for which, in assay [1], the “inhibition … to type I collagen (in words)” value is “inactive”.

As to DGWSPW [Peptide 317, DGWSPW], the “binding of fibronectin to peptide (in words)” value in assay [2] is “inactive”.

As for GGWGPW [Peptide 318, GGWGPW], the “binding of fibronectin to peptide (in words)” value in assay [2] is “inactive”.

Usually IC50 stands for the point on the concentration scale where inhibition reaches its midpoint. For the molecule GGWSHW [Peptide 300, GGWSHW], the values for the half-maximal inhibitory concentration (IC50) in assay [3] and in assay [1] were 27 µM and 40 µM, respectively.

As for GGWSHY [GlyGlyTrpSerHisTyr], in assay [3], the “inhibition of fibronectin binding to immobilized peptide GlyGlyTrpSerHisTrp (in words)” value is “inactive”. In addition, the “inhibition of fibronectin binding to gelatin (in words)” value (“inhibition … to gelatin (in words)” for short) in assay [4] is “inactive”. The “inhibition … to type I collagen (in words)” value in assay [1] is “inactive”.

For the molecule GGWSKW [GlyGlyTrpSerLysTrp], in assay [3], the “inhibition of fibronectin binding to immobilized peptide GlyGlyTrpSerHisTrp (in words)” value was “inactive”. Moreover, the “inhibition … to gelatin (in words)” value in assay [4] was “inactive”. In addition, in assay [1], the “inhibition … to type I collagen (in words)” value is “inactive”.

For GGWTHW [GlyGlyTrpThrHisTrp], the “inhibition … to type I collagen (in words)” value in assay [1] is “inactive”.

Turning to GGYSHW [GlyGlyTyrSerHisTrp], the “inhibition of fibronectin binding to immobilized peptide GlyGlyTrpSerHisTrp (in words)” value in assay [3] was “inactive”. Besides, the “inhibition … to gelatin (in words)” value in assay [4] is “inactive”. In addition, the “inhibition … to type I collagen (in words)” value in assay [1] is “inactive”.

Turning to WSHWSP [Peptide 292, WSHWSP], the “inhibition … to type I collagen (in words)” value in assay [1] was “inactive”.

For “fetuin: control protein [reference compound]”, in assay [3], the “IC50 for competition of 125I-fibronectin binding to peptide GlyGlyTrpSerHisTrp” value (“IC50 for competition” for short) is > 200 µg/mL.

Take fibronectin: the “inhibition of fibronectin binding to immobilized peptide GlyGlyTrpSerHisTrp (in words)” value in assay [3] is “competed”.

For “thrombospondin: Human platelet thrombospondin, purified”, the “inhibition of fibronectin binding to immobilized peptide GlyGlyTrpSerHisTrp (in words)” value in assay [3] is given as “competed”.

With transferrin [reference compound], in assay [3], the “IC50 for competition” value was > 200 µg/mL.

B1: ovalbumin: control protein (protein, UniProt P01012 2-386, looked up)
Ovalbumin: GSIGAASMEFCFDVFKELKVHHANENIFYCPIAIMSALAMVYLGAKDSTRTQINKVVRFDKLPGFGDSIEAQCGTSVNVHSSLRDILNQITKPNDVYSFSLASRLYAEERYPILPEYLQCVKELYRGGLEPINFQTAADQARELINSWVESQTNGIIRNVLQPSSVDSQTAMVLVNAIVFKGLWEKAFKDEDTQAMPFRVTEQESKPVQMMYQIGLFRVASMASEKMKILELPFASGTMSMLVLLPDEVSGLEQLESIINFEKLTEWTSSNVMEERKIKVYLPRMKMEEKYNLTSVLMAMGITDVFSSSANLSGISSAESLKISQAVHAAHAEINEAGREVVGSAEAGVDAASVSEEFRADHPFLFCIKHIATNAVLFFGRCVSP
Consider B1, for which the “IC50 for competition” value in assay [3] is > 200 µg/mL.
